Results: PubChem BioAssay (NCI)
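These data come from cells grown in 96-well plates and exposed to compound for 48 hours at five concentrations. GI50 is the concentration that inhibits growth by half. The concentration for full growth arrest is given as TGI.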

Key:
Test in all cases: DTP human tumour cell line panel, 48 h
[1] = system: OVCAR-3 ovarian
[2] = system: A498 renal
[3] = system: SW-620 colon
[4] = system: OVCAR-4 ovarian
[5] = system: IGROV1 ovarian
[6] = system: SK-MEL-2 melanoma
[7] = system: SN12C renal
[8] = system: OVCAR-8 ovarian
[9] = system: NCI/ADR-RES ovarian
[10] = system: HOP-92 NSCLC
[11] = system: 786-0 renal
[12] = system: RPMI-8226 leukemia
[13] = system: T-47D breast
[14] = system: HS 578T breast
[15] = system: U251 CNS
[16] = system: MCF7 breast
[17] = system: PC-3 prostate
[18] = system: TK-10 renal
[19] = system: CCRF-CEM leukemia
[20] = system: DU-145 prostate
[21] = system: HCT-116 colon
[22] = system: RXF 393 renal
[23] = system: K-562 leukemia
[24] = system: A549 NSCLC
[25] = system: OVCAR-5 ovarian
[26] = system: MALME-3M melanoma
[27] = system: NCI-H522 lung
[28] = system: NCI-H23 lung
[29] = system: UO-31 renal
[30] = system: NCI-H226 lung
[31] = system: MDA-MB-231 breast
[32] = system: CAKI-1 renal
[33] = system: M14 melanoma
[34] = system: SK-MEL-5 melanoma
[35] = system: BT-549 breast
[36] = system: UACC-62 melanoma
[37] = system: EKVX NSCLC
[38] = system: HCC-2998 colon
[39] = system: SK-OV-3 ovarian
[40] = system: MDA-MB-435
[41] = system: KM12 colon
[42] = system: HL-60(TB) leukemia
[43] = system: SF-539 CNS
[44] = system: HCT-15 colon
[45] = system: SF-268 CNS
[46] = system: ACHN renal
[47] = system: SNB-19 CNS
[48] = system: UACC-257 melanoma
[49] = system: NCI-H460 lung
[50] = system: MOLT-4 leukemia
[51] = system: SK-MEL-28 melanoma
[52] = system: SR leukemia
[53] = system: LOX IMVI melanoma
[54] = system: HT29 colon
[55] = system: SF-295 CNS
[56] = system: HOP-62 NSCLC
[57] = system: COLO 205 colon
[58] = system: SNB-75 CNS

Structure (SMILES): C[C@@H](Oc1cc(-c2cnn(C3CCNCC3)c2)cnc1N)c1c(Cl)ccc(F)c1Cl
- GI50 [1]: 3260 nM
- TGI [1]: > 10000 nM
- GI50 [2]: 1510 nM
- TGI [2]: 5340 nM
- GI50 [3]: 435 nM
- TGI [3]: > 10000 nM
- TGI [4]: > 10000 nM
- GI50 [5]: 2170 nM
- TGI [5]: > 10000 nM
- GI50 [6]: 1820 nM
- TGI [6]: 4540 nM
- GI50 [7]: 1800 nM
- TGI [7]: > 10000 nM
- GI50 [8]: 2860 nM
- TGI [8]: > 10000 nM
- GI50 [9]: 7380 nM
- TGI [9]: > 10000 nM
- GI50 [10]: 236 nM
- TGI [10]: 2620 nM
- GI50 [11]: 2720 nM
- TGI [11]: 8940 nM
- GI50 [12]: 1910 nM
- TGI [12]: 8640 nM
- GI50 [13]: 1710 nM
- TGI [13]: 7900 nM
- GI50 [14]: 966 nM
- TGI [14]: 6250 nM
- GI50 [15]: 1980 nM
- TGI [15]: 8740 nM
- GI50 [16]: 457 nM
- TGI [16]: 2430 nM
- GI50 [17]: 1350 nM
- TGI [17]: > 10000 nM
- GI50 [18]: 2760 nM
- TGI [18]: > 10000 nM
- GI50 [19]: 621 nM
- TGI [19]: 5130 nM
- GI50 [20]: 2740 nM
- TGI [20]: > 10000 nM
- GI50 [21]: 619 nM
- TGI [21]: 4770 nM
- GI50 [22]: 1360 nM
- TGI [22]: 3110 nM
- GI50 [23]: 267 nM
- TGI [23]: 2300 nM
- GI50 [24]: 947 nM
- TGI [24]: > 10000 nM
- GI50 [25]: 1140 nM
- TGI [25]: > 10000 nM
- GI50 [26]: 1220 nM
- TGI [26]: 2610 nM
- GI50 [27]: 1300 nM
- TGI [27]: 3200 nM
- GI50 [28]: 930 nM
- TGI [28]: > 10000 nM
- GI50 [29]: 1080 nM
- TGI [29]: 4740 nM
- GI50 [30]: 701 nM
- TGI [30]: > 10000 nM
- GI50 [31]: 1170 nM
- TGI [31]: 6500 nM
- GI50 [32]: 3390 nM
- TGI [32]: > 10000 nM
- GI50 [33]: 1080 nM
- TGI [33]: 2650 nM
- GI50 [34]: 1470 nM
- TGI [34]: 2840 nM
- GI50 [35]: 5240 nM
- TGI [35]: > 10000 nM
- GI50 [36]: 1540 nM
- TGI [36]: 4660 nM
- GI50 [37]: 8070 nM
- TGI [37]: > 10000 nM
- GI50 [38]: 2280 nM
- TGI [38]: > 10000 nM
- GI50 [39]: 5850 nM
- TGI [39]: > 10000 nM
- GI50 [40]: 715 nM
- TGI [40]: > 10000 nM
- GI50 [41]: 53 nM
- TGI [41]: > 10000 nM
- GI50 [42]: 398 nM
- TGI [42]: 1900 nM
- GI50 [43]: 1800 nM
- TGI [43]: 3500 nM
- GI50 [44]: 2400 nM
- TGI [44]: > 10000 nM
- GI50 [45]: 3480 nM
- TGI [45]: > 10000 nM
- GI50 [46]: 2970 nM
- TGI [46]: > 10000 nM
- GI50 [47]: 2240 nM
- TGI [47]: > 10000 nM
- GI50 [48]: 1520 nM
- TGI [48]: 3150 nM
- GI50 [49]: 662 nM
- TGI [49]: 9320 nM
- GI50 [50]: 701 nM
- TGI [50]: 4390 nM
- GI50 [51]: 1610 nM
- TGI [51]: 3540 nM
- GI50 [52]: 45.3 nM
- TGI [52]: 1090 nM
- GI50 [53]: 1170 nM
- TGI [53]: 2640 nM
- GI50 [54]: 437 nM
- TGI [54]: 2310 nM
- GI50 [55]: 276 nM
- TGI [55]: > 10000 nM
- GI50 [56]: 2570 nM
- TGI [56]: > 10000 nM
- GI50 [57]: 420 nM
- TGI [57]: 1570 nM

Structure (SMILES): CCNCCNc1cc(-c2ccc(Cl)cc2)c(C#N)c2nc3ccccc3n12
- GI50 [1]: 1450 nM
- TGI [1]: 2850 nM
- GI50 [2]: 2010 nM
- TGI [2]: 3520 nM
- GI50 [3]: 1520 nM
- TGI [3]: 3140 nM
- GI50 [4]: 1640 nM
- TGI [4]: 4090 nM
- GI50 [5]: 1680 nM
- TGI [5]: 3370 nM
- GI50 [6]: 2060 nM
- TGI [6]: 3890 nM
- GI50 [7]: 1890 nM
- TGI [7]: 3850 nM
- GI50 [9]: 1850 nM
- TGI [9]: 3910 nM
- GI50 [10]: 1700 nM
- TGI [10]: 3200 nM
- GI50 [11]: 1490 nM
- TGI [11]: 2870 nM
- GI50 [58]: 1330 nM
- TGI [58]: 2670 nM
- GI50 [12]: 2300 nM
- TGI [12]: 4920 nM
- GI50 [13]: 1740 nM
- TGI [13]: 3860 nM
- GI50 [14]: 2200 nM
- TGI [14]: 4680 nM
- GI50 [15]: 1700 nM
- TGI [15]: 3270 nM
- GI50 [16]: 1370 nM
- TGI [16]: 3050 nM
- GI50 [17]: 1860 nM
- TGI [17]: 3390 nM
- GI50 [18]: 2040 nM
- TGI [18]: 3620 nM
- GI50 [19]: 490 nM
- TGI [19]: 2410 nM
- GI50 [20]: 1710 nM
- TGI [20]: 3090 nM
- GI50 [21]: 1270 nM
- TGI [21]: 2590 nM
- GI50 [22]: 1440 nM
- TGI [22]: 2780 nM
- GI50 [23]: 1290 nM
- TGI [23]: 3060 nM
- GI50 [24]: 1920 nM
- TGI [24]: 3620 nM
- GI50 [25]: 1910 nM
- TGI [25]: 3670 nM
- GI50 [26]: 1690 nM
- TGI [26]: 3380 nM
- GI50 [27]: 2000 nM
- TGI [27]: 3840 nM
- GI50 [28]: 1850 nM
- TGI [28]: 3910 nM
- GI50 [29]: 1490 nM
- TGI [29]: 2940 nM
- GI50 [30]: 1790 nM
- TGI [30]: 4310 nM
- GI50 [31]: 1920 nM
- TGI [31]: 3580 nM
- GI50 [32]: 1630 nM
- TGI [32]: 3280 nM
- GI50 [33]: 1880 nM
- TGI [33]: 3380 nM
- GI50 [34]: 1700 nM
- TGI [34]: 3110 nM
- GI50 [35]: 1750 nM
- TGI [35]: 3340 nM
- GI50 [36]: 1850 nM
- TGI [36]: 3650 nM
- GI50 [37]: 1600 nM
- TGI [37]: 3310 nM
- GI50 [38]: 1840 nM
- TGI [38]: 3400 nM
- GI50 [39]: 1850 nM
- TGI [39]: 3470 nM
- GI50 [40]: 1580 nM
- TGI [40]: 2950 nM
- GI50 [41]: 1730 nM
- TGI [41]: 3240 nM
- GI50 [42]: 1650 nM
- TGI [42]: 3650 nM
- GI50 [43]: 1720 nM
- TGI [43]: 3220 nM
- GI50 [44]: 1250 nM
- TGI [44]: 2640 nM
- GI50 [45]: 1540 nM
- TGI [45]: 3000 nM
- GI50 [46]: 1480 nM
- TGI [46]: 2890 nM
- GI50 [47]: 1840 nM
- TGI [47]: 3640 nM
- GI50 [48]: 2180 nM
- TGI [48]: 3920 nM
- GI50 [49]: 1790 nM
- TGI [49]: 3370 nM
- GI50 [51]: 1800 nM
- TGI [51]: 3340 nM
- GI50 [52]: 282 nM
- TGI [52]: 690 nM
- GI50 [53]: 1520 nM
- TGI [53]: 2930 nM
- GI50 [54]: 1790 nM
- TGI [54]: 3470 nM
- GI50 [55]: 1720 nM
- TGI [55]: 3310 nM
- GI50 [56]: 2370 nM
- TGI [56]: 5400 nM
- GI50 [57]: 1460 nM
- TGI [57]: 3270 nM
